{"source": "patent US7629347B2", "about": "“Protein tyrosine kinase inhibitors” (Critical Outcome Technologies, Inc., priority 2002, dated 2009)", "key": {"[1]": {"system": "Leukemia Cell Line K562", "test": "in vitro test on cell line K562", "assay_type": "cell-based", "settings": "Homo sapiens", "method": "(§1) The COTI-001 compound was tested in vitro on a variety of cell lines comparing its effect to a known protein tyrosine kinase inhibitor used in the treatment of certain cancers."}, "[2]": {"system": "mice", "test": "in vivo toxicity study in mice", "quoted_text": "(§2) Five groups of mice (3 mice per group) were administered a 50 mg/kg dosage of Formula II."}, "[3]": {"system": "Leukemia Cell Line P388", "test": "in vitro test on cell line P388", "assay_type": "cell-based, murine", "settings": "Mus musculus", "method": "as §1"}, "[4]": {"system": "Breast Cancer Cell Line MCF7", "test": "in vitro test on cell line MCF7", "assay_type": "cell-based", "settings": "Homo sapiens, MCF7, read-out: Actual −Log(GI50) (converted)", "method": "as §1"}, "[5]": {"system": "mice", "settings": "mouse, in vivo, 50 mg/kg", "quoted_text": "as §2"}}, "note": "Counter-ions that a name gives are not always drawn. Like-named read-outs stand apart in the source and are kept apart here.", "data": [{"smiles": "CC1CN=C(c2ccc(NC(=O)c3ccc(C(=O)Nc4ccc(C5=NCC(C)CN5)cc4)nc3)cc2)NC1", "note": "(centres unmarked) [Formula II, N,N′-Bis[4-(1,4,5,6-tetrahydro-5-methyl-2-pyrimidinyl)phenyl]-2,5-pyridinedicarboxamide dihydrochloride]", "values": [{"measurement": "GI50", "setting": "[1]; K562, read-out: Actual −Log(GI50) (converted)", "result": 20000, "unit": "nM"}, {"measurement": "tolerated dosage", "setting": "[2]", "result": "≤ 25", "unit": "mg/kg"}, {"measurement": "tolerability of dosage", "setting": "[2]; 50 mg/kg dosage", "result": "not tolerated"}, {"measurement": "GI50", "setting": "[3]; P388, read-out: Actual −Log(GI50) (converted)", "result": 1000, "unit": "nM"}, {"measurement": "GI50", "setting": "[4]", "result": 20000, "unit": "nM"}]}, {"smiles": "Cc1ccc(NC(=O)c2ccc(CN3CCN(C)CC3)cc2)cc1Nc1nccc(-c2cccnc2)n1", "note": "[Gleevec ™, reference compound]", "values": [{"measurement": "GI50", "setting": "[1]; Leukemia Cell Line K562, in vitro result, read-out: Actual −Log(GI50) (converted)", "result": 1000, "unit": "nM"}, {"measurement": "tolerability of dosage", "setting": "[5]", "result": "able to tolerate this dosage amount"}, {"measurement": "GI50", "setting": "[3]; Leukemia Cell Line P388, in vitro result, read-out: Actual −Log(GI50) (converted)", "result": 2000, "unit": "nM"}]}]}
